Test results taken from publication PMC8165160, “Substrate Specificities and Inhibition Pattern of the Solute Carrier Family 10 Members NTCP, ASBT and SOAT” (Frontiers in Molecular Biosciences, 2021).
Read-outs that look alike come from different tables or passages of the source.

Columns and labels:
[1] = molecular target: T1, ASBT (Homo sapiens, UniProt Q12908); assay: Substrate screening: sodium-dependent uptake of radiolabeled compounds in ASBT-HEK293 cells; format: cell-based; conditions: radiolabeled bile acids 1 µM, 30 min, ASBT-HEK293, vs sodium-free control
T1 construct: The full-length open reading frames of NTCP, ASBT, and SOAT were cloned; expressed in transfected cells; host or cells: Flp-In T-REX HEK293 (ASBT-HEK293), tetracycline-induced
T1 sequence (Q12908 1-348): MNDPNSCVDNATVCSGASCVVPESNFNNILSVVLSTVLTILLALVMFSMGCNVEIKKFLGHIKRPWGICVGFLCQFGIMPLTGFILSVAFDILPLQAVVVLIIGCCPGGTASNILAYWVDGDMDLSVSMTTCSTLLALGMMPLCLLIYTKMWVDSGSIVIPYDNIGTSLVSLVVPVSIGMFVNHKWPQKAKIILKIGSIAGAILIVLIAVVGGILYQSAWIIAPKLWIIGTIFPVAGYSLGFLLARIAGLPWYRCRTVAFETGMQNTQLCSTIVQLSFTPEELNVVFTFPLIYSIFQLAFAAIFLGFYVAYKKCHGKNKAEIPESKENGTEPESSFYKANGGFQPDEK
Description: (§1) Stably SLC10 transporter transfected NTCP-HEK293, ASBT-HEK293, SOAT-HEK293 cells and the HEK293-FlpIn maternal cell line were seeded on 24-well plates (if not stated otherwise for individual assays). Well plates were coated with poly-D-lysine prior to seeding of 125,000 cells per well. Cells were grown with 1 ml of standard medium per well with or without tetracycline ([…]) for 72 h to induce carrier expression before respective assays were started. HEK293-FlpIn cells were cultivated with standard medium and served as control.
(§2) Uptake experiments were initiated by replacing the preincubation buffer by 500 μL transport buffer containing the radiolabeled test compound and were performed at 37°C. Transport was terminated by removing the transport buffer and washing five-times with ice-cold PBS. Cell monolayers were lysed in 1 N NaOH with 0.1% SDS and the cell-associated radioactivity was determined by liquid scintillation counting.
(§3) FIGURE 1 Comparative substrate screening for bile acids and sulfated steroids in NTCP-, ASBT-, and SOAT-HEK293 cells. Transport assays were performed with the indicated substrates in NTCP-HEK293, ABST-HEK293, SOAT-HEK293, and HEK293-FlpIn cells. Cells were washed and equilibrated with Na^+-containing transport buffer (filled bars) or with Na^+-free transport buffer (open bars) at 37°C. For uptake, cells were incubated with radiolabeled steroid compounds at a final concentration of 200 nM in Na^+-containing or Na^+-free transport buffer for 10 min. Radiolabeled bile acids were used at 1 µM concentrations and transport was analyzed over 30 min. HEK293-FlpIn cells served as additional controls. After the indicated time intervals, cells were washed with ice-cold PBS, lysed and subjected to liquid scintillation counting. […] 3-OH, trihydroxylated BAs; 2-OH, dihydroxylated BAs; 1-OH, monohydroxylated BAs.

[2] = molecular target: T2, NTCP (Homo sapiens, UniProt Q14973); assay: Substrate screening: sodium-dependent uptake of radiolabeled compounds in NTCP-HEK293 cells; format: cell-based; parameters: The full-length open reading frames of NTCP, ASBT, and SOAT were cloned; expressed in transfected cells; host or cells: Flp-In T-REX HEK293 (NTCP-HEK293), tetracycline-induced; conditions: NTCP-HEK293, vs sodium-free control
T2 sequence (Q14973 1-349): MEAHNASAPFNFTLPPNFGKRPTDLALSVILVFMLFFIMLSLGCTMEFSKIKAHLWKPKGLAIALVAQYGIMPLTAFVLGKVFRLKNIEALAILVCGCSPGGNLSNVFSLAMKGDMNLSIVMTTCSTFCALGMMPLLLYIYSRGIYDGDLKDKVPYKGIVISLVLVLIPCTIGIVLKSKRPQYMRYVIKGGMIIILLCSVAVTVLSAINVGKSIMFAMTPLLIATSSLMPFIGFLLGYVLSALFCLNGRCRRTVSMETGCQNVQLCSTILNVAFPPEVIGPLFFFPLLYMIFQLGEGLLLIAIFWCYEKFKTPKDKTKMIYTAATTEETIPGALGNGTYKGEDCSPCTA
Description: as §1, §2, §3

[3] = molecular target: T2, NTCP; assay: Transport inhibition in NTCP-HEK293 cells; conditions: NTCP-HEK293
[4] = radiolabeled bile acids 1 µM, 30 min

Molecule	Transport activity grading ASBT (mean uptake) [1]	Transport activity grading NTCP (mean uptake) [2, 4]	further results
C[C@H](CCC(=O)O)[C@H]1CC[C@H]2[C@@H]3[C@H](O)C[C@@H]4C[C@H](O)CC[C@]4(C)[C@H]3CC[C@]12C [Chenodeoxycholic acid]	+ (Mean uptake of bile acids “+” for values below 500)	+ (Mean uptake of bile acids “+” for values below 500)	
C[C@H](CCC(=O)O)[C@H]1CC[C@H]2[C@@H]3[C@H](O)C[C@@H]4C[C@H](O)CC[C@]4(C)[C@H]3C[C@H](O)[C@]12C [Cholic acid]	+ (Mean uptake of bile acids “+” for values below 500)	++ (“++” for values between 500 and 1000)	
C[C@H](CCC(=O)O)[C@H]1CC[C@H]2[C@@H]3CC[C@@H]4C[C@H](O)CC[C@]4(C)[C@H]3C[C@H](O)[C@]12C [Deoxycholic acid]	+ (Mean uptake of bile acids “+” for values below 500)	+ (Mean uptake of bile acids “+” for values below 500)	
C[C@]12CC[C@@H]3c4ccc(O[C@@H]5O[C@H](C(=O)O)[C@@H](O)[C@H](O)[C@H]5O)cc4CC[C@H]3[C@@H]1CCC2=O [Estrone-3β-D-glucuronide]			Transport activity grading NTCP (mean uptake) ([2]; radiolabeled steroid compounds 200 nM, 10 min): + (Mean uptake “+” for values below 10)
CC(CCC(=O)NCC(=O)O)C1CCC2C3C(O)CC4CC(O)CCC4(C)C3CCC12C (stereo not shown) [Glycochenodeoxycholic acid]	++ (“++” for values between 500 and 1000)	+++ (“+++” for values above 1000 pmol/mg protein/30 min)	
C[C@H](CCC(=O)NCC(=O)O)[C@H]1CC[C@H]2[C@@H]3[C@H](O)C[C@@H]4C[C@H](O)CC[C@]4(C)[C@H]3C[C@H](O)[C@]12C [Glycocholic acid]	++ (“++” for values between 500 and 1000)	+++ (“+++” for values above 1000 pmol/mg protein/30 min)	
CC(CCC(=O)NCC(=O)O)C1CCC2C3CCC4CC(O)CCC4(C)C3CC(O)C12C (stereo not shown) [Glycodeoxycholic acid]	++ (“++” for values between 500 and 1000)	+++ (“+++” for values above 1000 pmol/mg protein/30 min)	
C[C@H](CCC(=O)NCC(=O)O)[C@H]1CC[C@H]2[C@@H]3[C@@H](O)C[C@@H]4C[C@H](O)CC[C@]4(C)[C@H]3CC[C@]12C [Glycoursodeoxycholic acid]	++ (“++” for values between 500 and 1000)	+++ (“+++” for values above 1000 pmol/mg protein/30 min)	
C[C@H](CCC(=O)NCCS(=O)(=O)O)[C@H]1CC[C@H]2[C@@H]3[C@H](O)C[C@@H]4C[C@H](O)CC[C@]4(C)[C@H]3CC[C@]12C [Taurochenodeoxycholic acid]	++ (“++” for values between 500 and 1000)	+++ (“+++” for values above 1000 pmol/mg protein/30 min)	
C[C@H](CCC(=O)NCCS(=O)(=O)O)[C@H]1CC[C@H]2[C@@H]3CC[C@@H]4C[C@H](O)CC[C@]4(C)[C@H]3C[C@H](O)[C@]12C [Taurodeoxycholic acid]	++ (“++” for values between 500 and 1000)	+++ (“+++” for values above 1000 pmol/mg protein/30 min)	
C[C@H](CCC(=O)NCCS(=O)(=O)O)[C@H]1CC[C@H]2[C@@H]3[C@@H](O)C[C@@H]4C[C@H](O)CC[C@]4(C)[C@H]3CC[C@]12C [Tauroursodeoxycholic acid]	++ (“++” for values between 500 and 1000)	+++ (“+++” for values above 1000 pmol/mg protein/30 min)	
C[C@H](CCC(=O)O)[C@H]1CC[C@H]2[C@@H]3[C@@H](O)C[C@@H]4C[C@H](O)CC[C@]4(C)[C@H]3CC[C@]12C [Ursodeoxycholic acid]		+ (Mean uptake of bile acids “+” for values below 500)	
myr-preS1: 2–48 N-terminal amino acids of the myristoylated preS1 domain of the HBV/HDV large envelope protein (GQNLSTSNPLGFFPDHQLDPAFRANTANPDWDFNPNKDTWPDANKVG; N-terminal myristoyl on Gly2)			IC50 ([3]; read-out: IC50 for inhibition of [3H]DHEAS transport via NTCP, 200 nM DHEAS): 167 nM; IC50 ([3]; read-out: IC50 for inhibition of [3H]TC transport via NTCP, 200 nM TC): 182 nM; IC50 ([3]; read-out: IC50 for inhibition of [3H]TLC transport via NTCP, 200 nM TLC): 316 nM
